Measured values reported in patent US9944598B2, “Mono- or di-substituted indole derivatives as dengue viral replication inhibitors” (priority 2014, dated 2018).
pEC50: −log10 of the molar value.

Legend:
Format in all cases: cell-based
in vitro = conditions: African green monkey, CC50
Description: In parallel, the toxicity of the compounds was assessed on the same plates. Once the read-out for the eGFP signal was done, 10 μL of resazurin, a cell viability stain, was added to all wells of the 384-well plates. The resazurin assay is based on the reduction of the blue resazurin by NADH, produced by the cells, into the highly fluorescent product, resorufin. The formation of pink fluorescent resorufin is directly related to the number of viable cells in the well. The plates were incubated for an additional 5 hours in a fully humidified incubator (37° C., 5% CO2). Next, the plates were measured on an Infinite reader (Tecan) using an excitation wavelength of 530 nm. The half maximal cytotoxic concentration (CC50) was also determined, defined as the concentration required to reduce the resazurin conversion by 50% compared to that of the cell control wells (Table 1). Finally, the selectivity index (SI) is determined for the compounds, which is calculated as followed: SI=CC50/EC50.

DENV-3 strain H87 = assay: Tetravalent RT-qPCR assay Protocol A, serotype 3; conditions: Dengue virus, DENV3, 72 h, RT-qPCR serotype 3 H87, Vero cells, 3 days
Description: (§1) The antiviral activity of the compounds of the invention was tested against DENV-1 strain TC974#666 (NCPV), DENV-2 strain 16681, DENV-3 strain H87 (NCPV) and DENV-4 strains H241 (NCPV) and EDEN (SG/06K2270DK1/2005; GenBank accession number QG398256) in a RT-qPCR assay. Therefore, Vero cells were infected with either DENV-1, or -2, or -3, or -4 in the presence or absence of test compounds. At day 3 post-infection, the cells were lysed and cell lysates were used to prepare cDNA of both a viral target (the 3′UTR of DENV; table 2) and a cellular reference gene (β-actin, table 2). Subsequently, a duplex real time PCR was performed on a Lightcycler480 instrument. The generated Cp value is inversely proportional to the amount of RNA expression of these targets. Inhibition of DENV replication by a test compound result in a shift of Cp's for the 3′UTR gene. On the other hand, if a test compound is toxic to the cells, a similar effect on β-actin expression will be observed. The comparative ΔΔCp method is used to calculate EC50, which is based on the relative gene expression of the target gene (3′UTR) normalized with the cellular housekeeping gene (β-actin). In addition, CC50 values were determined based on the Cp values acquired for the housekeeping gene β-actin.
(§2) The culture medium consisted of minimal essential medium supplemented with 2% of heat-inactivated fetal calf serum, 0.04% gentamycin (50 mg/mL) and 2 mM of L-glutamine. Vero cells, obtained from ECACC, were suspended in culture medium and 75 μL/well was added in 96-well plates (10000 cells/well), which already contain the antiviral compounds. Typically, these plates contain a 4-fold serial dilution of 9 dilution steps of the test compound at 200 times the final concentration in 100% DMSO (500 nL; final concentration range: 25 μM-0.00038 μM). In addition, each plate contains wells which are assigned as virus controls (containing cells and virus in the absence of compound) and cell controls (containing cells in the absence of virus and compound). Once the cells were added in the plates, the plates were incubated in a fully humidified incubator (37° C., 5% CO2) until the next day. Then, DENV-1 strain TC974#666, DENV-2 strain 16681, DENV-3 strain H87 or DENV-4 strains H241 or EDEN were added. […] In parallel, 25 μL of culture medium was added to the cell controls. Next, the plates were incubated for 3 days in a fully humidified incubator (37° C., 5% CO2). After 3 days, the supernatant was removed from the wells and the cells were washed twice with ice-cold PBS (˜100 μL). The cell pellets within the 96-well plates were stored at −80° C. for at least 1 day. Next, RNA was extracted using the Cells-to-CT™ lysis kit, according to the manufacture's guideline (Applied Biosystems). The cell lysates can be stored at −80° C. or immediately used in the reverse transcription step.
(§3) In preparation of the reverse transcription step, mix A (table 3A) was prepared and 7.57 μL/well was dispensed in a 96-well plate. After addition of 5 μL of the cell lysates, a five minute denaturation step at 75° C. was performed (table 3B). Afterwards, 7.43 μL of mix B was added (table 3C) and the reverse transcription step was initiated (table 3D) to generate cDNA.
(§4) Finally, a RT-qPCR mix was prepared, mix C (table 4A), dispensed in 96-well LightCycler qPCR plates to which 3 μL of cDNA was added and the qPCR was performed according to the conditions in table 4B on a LightCycler 480.
(§5) Using the LightCycler software and an in-house LIMS system, dose response curves for each compound were calculated and the half maximal effective concentration (EC50) and the half maximal cytotoxic concentration (CC50) were determined (Tables 6-9).

DENV-2 strain 16681 = assay: Tetravalent RT-qPCR assay Protocol A, serotype 2; conditions: Dengue virus, DENV2, 72 h, RT-qPCR serotype 2 16681, Vero cells, 3 days
Description: as §1, §2, §3, §4, §5

SMILES | CC50 (in vitro) [µM] | pEC50 (DENV-3 strain H87) | pEC50 (DENV-2 strain 16681)
COc1cc(NC(C(=O)c2c[nH]c3cc(F)c(F)cc23)c2ccc(Cl)cc2OC)cc(OCCO)c1 (single isomer, unassigned) [Compound 9A, 2-(4-chloro-2-methoxyphenyl)-1-(5,6-difluoro-1H-indol-3-yl)-2-((3-(2-hydroxyethoxy)-5-methoxyphenyl)amino)ethanone] | 3.9 | 7.20 | 9.10
COc1cc(NC(C(=O)c2c[nH]c3c(C)cc(F)cc23)c2ccc(Cl)cc2OC)cc(OCCO)c1 (single isomer, unassigned) [Compound 8A, 2-(4-chloro-2-methoxyphenyl)-1-(5-fluoro-7-methyl-1H-indol-3-yl)-2-((3-(2-hydroxyethoxy)-5-methoxyphenyl)amino)ethanone] | 4.2 | 7.12 | 8.92
COc1cc(NC(C(=O)c2c[nH]c3c(F)cc(C)cc23)c2ccc(Cl)cc2OC)cc(OCCO)c1 (single isomer, unassigned) [Compound 10A, 2-(4-chloro-2-methoxyphenyl)-1-(7-fluoro-5-methyl-1H-indol-3-yl)-2-((3-(2-hydroxyethoxy)-5-methoxyphenyl)amino)ethanone] | 4.5 | 7.15 | 8.49
COc1cc(NC(C(=O)c2c[nH]c3cc(Cl)ccc23)c2ccc(Cl)cc2OC)cc(OCCO)c1 (single isomer, unassigned) [Compound 4A, 1-(6-chloro-1H-indol-3-yl)-2-(4-chloro-2-methoxyphenyl)-2-((3-(2-hydroxyethoxy)-5-methoxyphenyl)amino)ethanone] | 4.9 | 7.19 | 9.36
COc1cc(NC(C(=O)c2c[nH]c3c(F)c(F)ccc23)c2ccc(Cl)cc2OC)cc(OCCO)c1 (single isomer, unassigned) [Compound 11B, 2-(4-chloro-2-methoxyphenyl)-1-(6,7-difluoro-1H-indol-3-yl)-2-((3-(2-hydroxyethoxy)-5-methoxyphenyl)amino)ethanone] | – | 7.15 | 9.00
COc1cc(NC(C(=O)c2c[nH]c3cc(F)ccc23)c2ccc(Cl)cc2OC)cc(OCCO)c1 (single isomer, unassigned) [Compound 1A, 2-(4-chloro-2-methoxyphenyl)-1-(6-fluoro-1H-indol-3-yl)-2-((3-(2-hydroxyethoxy)-5-methoxyphenyl)amino)ethanone] | 4.3 | 7.20 | 8.96
COc1cc(NC(C(=O)c2c[nH]c3c(C)c(F)ccc23)c2ccc(Cl)cc2OC)cc(OCCO)c1 (single isomer, unassigned) [Compound 2A, 2-(4-chloro-2-methoxyphenyl)-1-(6-fluoro-7-methyl-1H-indol-3-yl)-2-((3-(2-hydroxyethoxy)-5-methoxyphenyl)amino)ethanone] | 4.2 | 7.28 | 9.07
COc1cc(NC(C(=O)c2c[nH]c3cc(OC)c(F)cc23)c2ccc(Cl)cc2OC)cc(OCCO)c1 (single isomer, unassigned) [Compound 7A, 2-(4-chloro-2-methoxyphenyl)-1-(5-fluoro-6-methoxy-1H-indol-3-yl)-2-((3-(2-hydroxyethoxy)-5-methoxyphenyl)amino)ethanone] | 6.1 | 7.15 | 9.04
COc1cc(NC(C(=O)c2c[nH]c3c(C)c(Cl)ccc23)c2ccc(Cl)cc2OC)cc(OCCO)c1 (single isomer, unassigned) [Compound 3A, 2-(4-chloro-2-methoxyphenyl)-1-(6-chloro-7-methyl-1H-indol-3-yl)-2-((3-(2-hydroxyethoxy)-5-methoxyphenyl)amino)ethanone] | 4.5 | 7.44 | 9.62
COc1cc(NC(C(=O)c2c[nH]c3cc(OC)ccc23)c2ccc(Cl)cc2OC)cc(OCCO)c1 (single isomer, unassigned) [Compound 5A, 2-(4-chloro-2-methoxyphenyl)-2-((3-(2-hydroxyethoxy)-5-methoxyphenyl)amino)-1-(6-methoxy-1H-indol-3-yl)ethanone] | 5.9 | 7.17 | 9.30
COc1cc(NC(C(=O)c2c[nH]c3cc(OC)c(C)cc23)c2ccc(Cl)cc2OC)cc(OCCO)c1 (single isomer, unassigned) [Compound 6A, 2-(4-chloro-2-methoxyphenyl)-2-((3-(2-hydroxyethoxy)-5-methoxyphenyl)amino)-1-(6-methoxy-5-methyl-1H-indol-3-yl)ethanone] | 5.1 | 7.59 | 9.27
